Assay results reported in PubChem BioAssay (NCI).
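Interpolation was linear, between the two tested concentrations surrounding the appropriate level; five concentrations were tested over 48 hours in 96-well plates. TGI is the concentration that stops growth completely.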

Experiments:
Assay in all cases: NCI tumour cell line growth inhibition, 48 h
LXFL 529 NSCLC = tested on: LXFL 529 NSCLC
RXF-631 renal = tested on: RXF-631 renal
M19-MEL melanoma = tested on: M19-MEL melanoma
KM20L2 colon = tested on: KM20L2 colon
SNB-78 CNS = tested on: SNB-78 CNS
DMS 114 small cell lung = tested on: DMS 114 small cell lung
HOP-18 NSCLC = tested on: HOP-18 NSCLC
BT-549 breast = tested on: BT-549 breast
MDA-N = tested on: MDA-N
P388/ADR leukemia = tested on: P388/ADR leukemia
P388 leukemia = tested on: P388 leukemia

| SMILES | TGI (LXFL 529 NSCLC) | TGI (RXF-631 renal) | TGI (M19-MEL melanoma) | TGI (KM20L2 colon) | TGI (SNB-78 CNS) | TGI (DMS 114 small cell lung) | TGI (HOP-18 NSCLC) | TGI (BT-549 breast) | TGI (MDA-N) | TGI (P388/ADR leukemia) | TGI (P388 leukemia) |
| --- | --- | --- | --- | --- | --- | --- | --- | --- | --- | --- | --- |
| O=C1/C(=C/c2ccccc2)CN(C(=O)CCN2CCOCC2)C/C1=C\c1ccccc1 | 6.35 µM | 20.9 µM | 4.06 µM | 3.9 µM | 27.1 µM | 7.59 µM | 30.4 µM | 4.71 µM | 4.07 µM |  |  |
| C[C@H](OCc1ccccc1)C(=O)N1CCS(=O)(=O)N2CCC[C@@H]2C1=O | > 100 µM | > 100 µM | > 100 µM | > 100 µM | > 100 µM | > 100 µM | > 100 µM |  |  |  |  |
| O=C(O)CC[C@H](NC(=O)c1ccc(-n2nc3ccc(O)cc3nc2=O)cc1)C(=O)O | > 100 µM | > 100 µM | > 100 µM | > 100 µM | > 100 µM | > 100 µM | > 100 µM |  |  |  |  |
| O=c1cnn(C2OC(CO)C(O)C2O)c(=S)[nH]1 (stereo not given) | > 100 µM | > 100 µM | > 100 µM | > 100 µM | > 100 µM | > 100 µM | > 100 µM | > 100 µM | > 100 µM | 6.27 µM | 11.2 µM |
| Cc1ccccc1C1OC(=O)c2ccc3ccccc3c21 (stereo not given) | 15.1 µM | 3.23 µM | 11.4 µM | 15.8 µM | 98.3 µM | 13.3 µM | 25.2 µM |  |  |  |  |
| O=S(=O)(/C=C/c1ccc(F)cc1)Cc1ccc(CS(=O)(=O)/C=C/c2ccc(F)cc2)cc1 | > 100 µM | > 100 µM | > 100 µM | > 100 µM | > 100 µM | > 100 µM | > 100 µM |  |  |  |  |
| O=C(c1ccc(Cl)cc1Cl)C1[C@H]2C(=O)N(c3ccc(Cc4ccc(N5C(=O)[C@@H]6ON(c7ccccc7)C(C(=O)c7ccc(Cl)cc7Cl)[C@@H]6C5=O)cc4)cc3)C(=O)[C@H]2ON1c1ccccc1 (stereo not given in full) | > 50 µM | > 50 µM | > 50 µM | > 50 µM | > 50 µM | > 50 µM | > 50 µM |  |  |  |  |
